As a reminder, the IC50 is the concentration needed to halve the response being measured.

In the assay the target is T1, USP28 (His-tagged USP28-FL-mammalian) (Homo sapiens, UniProt Q96RU2).
T1 construct: Expression of USP28 (1-1077)-TEV-6*His (pTT5 vector); made in house; host or cells: Expi293f cells (pTT5 vector)
T1 sequence (Q96RU2 1-1077): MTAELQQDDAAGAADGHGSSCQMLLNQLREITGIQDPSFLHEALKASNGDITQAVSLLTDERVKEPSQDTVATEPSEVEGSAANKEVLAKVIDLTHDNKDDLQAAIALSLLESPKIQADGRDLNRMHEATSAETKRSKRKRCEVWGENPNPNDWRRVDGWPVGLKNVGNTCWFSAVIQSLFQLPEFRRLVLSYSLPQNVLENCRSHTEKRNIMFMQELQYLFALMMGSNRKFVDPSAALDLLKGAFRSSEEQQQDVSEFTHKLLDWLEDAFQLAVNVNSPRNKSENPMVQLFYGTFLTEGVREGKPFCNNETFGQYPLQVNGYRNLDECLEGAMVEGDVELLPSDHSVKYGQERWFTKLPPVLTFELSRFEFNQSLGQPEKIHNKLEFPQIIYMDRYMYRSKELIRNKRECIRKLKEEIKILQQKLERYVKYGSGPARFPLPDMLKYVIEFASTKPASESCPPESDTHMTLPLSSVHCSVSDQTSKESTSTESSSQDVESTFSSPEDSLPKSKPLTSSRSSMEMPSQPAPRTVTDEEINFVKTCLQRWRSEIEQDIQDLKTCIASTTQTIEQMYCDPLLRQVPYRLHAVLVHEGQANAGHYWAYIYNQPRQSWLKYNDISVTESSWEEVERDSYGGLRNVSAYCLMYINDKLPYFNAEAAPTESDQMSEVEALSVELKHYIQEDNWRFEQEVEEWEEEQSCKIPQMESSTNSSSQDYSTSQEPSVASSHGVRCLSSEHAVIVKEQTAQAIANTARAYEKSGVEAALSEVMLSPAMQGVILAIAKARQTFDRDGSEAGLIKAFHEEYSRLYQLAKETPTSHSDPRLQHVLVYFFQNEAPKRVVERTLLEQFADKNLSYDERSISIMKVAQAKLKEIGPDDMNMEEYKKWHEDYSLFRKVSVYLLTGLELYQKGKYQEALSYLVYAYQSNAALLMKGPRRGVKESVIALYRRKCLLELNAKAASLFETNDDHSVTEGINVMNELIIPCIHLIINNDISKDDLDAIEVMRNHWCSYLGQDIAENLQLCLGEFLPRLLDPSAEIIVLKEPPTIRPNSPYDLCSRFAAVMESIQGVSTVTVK
Put plainly: Ubiquitin-Rhodamine 110 Assay for USP28 Activity, Example A-1(a). It is filed as biochemical. As to conditions: Ubiquitin-Rhodamine 110 assay, Example A-1(a); read-out: USP28 A-1(a) IC50 range. An outline of the steps: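 Full-length His-tagged USP28 (1-1077, Expi293F-expressed; […]) was preincubated 30 min with compound (25 μM–1.3 nM, 10-point 3-fold) in 20 mM Tris-HCl pH 8.0, 3 mM BME, 0.03% BGG, 0.01% Triton X-100. Ub-Rh110 (25 nM) was then added for 45 min at room temperature, stopped with citric acid, and read by fluorescence (485/535 nm).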

Turning to `CO[C@H]1CN(c2ccc3c(c2)CC[C@H](NC(=O)c2sc4nc(C)ccc4c2N)C3)C[C@@H]1N` [Example 116, 3-amino-N-[(2S)-6-[(3S,4S)-3-amino-4-methoxypyrrolidin-1-yl}-1,2,3,4-tetrahydronaphthalen-2-yl]-6-methylthieno[2,3-b]pyridine-2-carboxamide], the IC50 was 50 to 200 nM. `CO[C@H]1CN(c2ccc3c(c2)OC[C@H](NC(=O)c2sc4nc(C)cnc4c2N)C3)C[C@@H]1N` [Example 117, 7-amino-N-[(3R)-7-[(3S,4S)-3-amino-4-methoxypyrrolidin-1-yl]-3,4-dihydro-2H-1-benzopyran-3-yl]-3-methylthieno[2,3-b]pyrazine-6-carboxamide]: the half-inhibitory concentration (IC50) fell in the range of 1 to 50 nM. `CO[C@H]1CN(c2ccc3c(c2)OC[C@H](NC(=O)c2sc4nc(C)sc4c2N)C3)C[C@@H]1N` [Example 118, 6-amino-N-[(3R)-7-[(3S,4S)-3-amino-4-methoxypyrrolidin-1-yl]-3,4-dihydro-2H-1-benzopyran-3-yl]-2-methylthieno[2,3-d][1,3]thiazole-5-carboxamide]: the half-inhibitory concentration (IC50) was 50 to 200 nM. As for `CO[C@H]1CCN(c2ccc3c(c2)OC[C@H](NC(=O)c2sc4nc(C)ccc4c2N)C3)C[C@@H]1N` [Example 119, 3-amino-N-[(3R)-7-[(3S,4S)-3-amino-4-methoxypiperidin-1-yl}-3,4-dihydro-2H-1-benzopyran-3-yl]-6-methylthieno[2,3-b]pyridine-2-carboxamide], the figure is 50 to 200 nM.

For `CO[C@@H]1CCN(c2ccc3c(c2)OC[C@H](NC(=O)c2sc4nc(C)ccc4c2N)C3)C[C@H]1N` [Example 120, 3-amino-N-[(3R)-7-[(3R,4R)-3-amino-4-methoxypiperidin-1-yl]-3,4-dihydro-2H-1-benzopyran-3-yl]-6-methylthieno[2,3-b]pyridine-2-carboxamide], the IC50 was 1 to 50 nM. As for `CO[C@@H]1CN(c2ccc3c(c2)OC[C@H](NC(=O)c2sc4nc(C)ccc4c2N)C3)C[C@@H]1N` [Example 121, 3-amino-N-[(3R)-7-[(3S,4R)-3-amino-4-methoxypyrrolidin-1-yl]-3,4-dihydro-2H-1-benzopyran-3-yl]-6-methylthieno[2,3-b]pyridine-2-carboxamide], the figure is 1 to 50 nM; as for `CO[C@H]1CN(c2ccc3c(c2)OC[C@H](NC(=O)c2sc4nc(C)ccc4c2N)C3)C[C@H]1N` [Example 122, 3-amino-N-[(3R)-7-[(3R,4S)-3-amino-4-methoxypyrrolidin-1-yl]-3,4-dihydro-2H-1-benzopyran-3-yl]-6-methylthieno[2,3-b]pyridine-2-carboxamide], 1 to 50 nM; as for `Cc1ccc2c(N)c(C(=O)N[C@H]3COc4cc([C@H]5C[C@@H](N)C5)ccc4C3)sc2n1` [Example 123, 3-amino-6-methyl-N-[(3R)-7-[(1s,3S)-3-aminocyclobutyl]-3,4-dihydro-2H-1-benzopyran-3-yl]thieno[2,3-b]pyridine-2-carboxamide], 1 to 50 nM. With `Cc1ccc2c(N)c(C(=O)N[C@H]3COc4cc([C@H]5C[C@H](N)C5)ccc4C3)sc2n1` [Example 124, 3-amino-6-methyl-N-[(3R)-7-[(1r,3r)-3-aminocyclobutyl]-3,4-dihydro-2H-1-benzopyran-3-yl]thieno[2,3-b]pyridine-2-carboxamide], the IC50 lay within 1 to 50 nM. As for `Cc1ccc2c(N)c(C(=O)N[C@H]3COc4cc(C5CC6COCC(C5)N6)ccc4C3)sc2n1` (stereo partly drawn) [Example 125, 3-amino-6-methyl-N-[(3R)-7-{3-oxa-9-azabicyclo[3.3.1]nonan-7-yl}-3,4-dihydro-2H-1-benzopyran-3-yl]thieno[2,3-b]pyridine-2-carboxamide], the figure is 1 to 50 nM; as for `Cc1ccc2c(N)c(C(=O)N[C@H]3COc4cc(N5CC6CCC(C5)N6)c(C#N)c(F)c4C3)sc2n1` [Example 126, 3-amino-N-[(3R)-6-cyano-7-{3,8-diazabicyclo[3.2.1]octan-3-yl}-5-fluoro-3,4-dihydro-2H-1-benzopyran-3-yl]-6-methylthieno[2,3-b]pyridine-2-carboxamide], 1 to 50 nM.

The values above are taken from US11524966B1 (Valo Early Discovery, Inc., priority 2017, dated 2022).
